Here are results for two compounds from patent US20060147382A1, “Synergistic combination comprising roflumilast and an anticholinergic agent selected from ipratropium, oxitropium and tiotropium salts for the treatment of respiratory diseases” (Altana Pharma AG, priority 2003, published 2006).

The test system of the test is methacholine-induced bronchoconstriction in guinea pigs. The test is described as follows: Inhibition of methacholine-induced bronchoconstriction in anaesthetized, mechanically ventilated guinea pigs. The test is classed as in vivo, guinea pig. As to conditions: for Effect on methacholine-induced bronchospasm (in words): versus placebo, ANOVA and Dunnett's test, ROFLUMILAST 4 mg/kg intratracheally, tiotropium-bromide 1 μg/kg i.v. How it is done:
Inhibition of Methacholine-Induced Bronchoconstriction in Guinea Pigs by ROFLUMILAST in combination with tiotropium-bromide
To assess the inhibitory effect of tiotropium-bromide, ROFLUMILAST, and the combination of both compounds on methacholine-induced bronchoconstriction in anaesthetized, mechanically ventilated guinea pigs.
Male Dunkin Hartley guinea pigs; body weight 350-450 g when performing the experiments.
75 min before methacholine-induced bronchospasm (at −75 min) animals were anaesthetized with urethane i.p. (1.2 g/kg). At −55 min for I.v. injections the right jugular vein and for ventilation the trachea was cannulated. At −45 min NaCl 0.9% or tiotropium-bromide was administered I.v. (1 μg/kg). At −30 min lactose (10 mg/kg) or ROFLUMILAST (4 mg/kg) mixed with lactose was administered intratracheally by a dry powder aerolizer. At −10 min pancuronium-bromide (1.5 mg/kg) was administered I.v. to abolish spontaneous breathing. Animals were mechanically ventilated with 60 breath/min and a tidal volume of 7 ml/kg. Dynamic lung compliance (COM) and airway conductance (CON) were calculated with the help of a computer system from airflow and ventilation pressure signals. At t=0 min methacholine was administered i.v. (60 μg/kg) to induce bronchoconstriction.
COM and CON were determined up to 120 s after methacholine-induced bronchospasm. AUCs for 0 to 120s were determined. Inhibition was calculated based on the AUC data. Data are shown as mean ±SEM. Results were taken to be significant if p<0.05 versus placebo (ANOVA and Dunnett's multiple comparison test)

Setting [1] is: male Dunkin Hartley guinea pigs, methacholine 60 μg/kg i.v., ROFLUMILAST 4 mg/kg intratracheally at -30 min, tiotropium-bromide 1 μg/kg i.v. at -45 min.

On to `O=C(Nc1c(Cl)cncc1Cl)c1ccc(OC(F)F)c(OCC2CC2)c1` [ROFLUMILAST, 3-cyclopropylmethoxy-4-difluoromethoxy-N-(3,5-dichloropyrid-4-yl)benzamide], for which the “Effect on methacholine-induced bronchospasm (in words)” value was “no significant effect”. Moreover, the “Inhibition of methacholine-induced airway conductance (CON) decrease, based on AUC 0 to 120 s” value under setting [1] is reported as 5.6%.
On to `C[N+]1(C)[C@@H]2C[C@@H](OC(=O)C(O)(c3cccs3)c3cccs3)C[C@H]1[C@@H]1O[C@@H]12` [tiotropium-bromide], for which the “Effect on methacholine-induced bronchospasm (in words)” value is given as “no significant effect”. Under setting [1], the “Inhibition of methacholine-induced airway conductance (CON) decrease, based on AUC 0 to 120 s” value is 5.9% and the “Inhibition of methacholine-induced dynamic lung compliance (COM) decrease, based on AUC 0 to 120 s” value turned out to be 12%.
